Data as given in US9850483B2, “Methods and systems for analysis of single cells” (The Board of Trustees of the Leland Stanford Junior …, priority 2010, dated 2017).

Test system: murine breast cancer stem cells
Assay: Clonogenic ability of murine breast cancer stem cells (colony number)
Assay type: cell-based
Conditions: short, 24 hour exposure to the inhibitor; p<0.02, t test
Method: Many of these genes have been linked to self renewal and cancer. These include the insulin growth factor binding partner IGFBP3, the HOX family members HOXA3, HOXA5, ME1S1 as well as transcription factors like ETS1, ETS2, RUNX2 and STAT3. It was tested whether the transcription factor STAT3 is a bona fide cancer stem cell regulator. STAT3 plays a role in the maintenance of both ES cells and HSCs. […] Next, when we examined immunochemistry analysis of breast tumors the STAT3 positive cells tended to be concentrated on the invasive edge of the cancer and the protein was not seen in the more differentiated-looking cells in the interior parts of tumors. Finally, there are small molecule inhibitors of STAT3. Such inhibitors can be tested in cancer stem cell models. The effect of the STAT3 inhibitor cucurbitacin on the clonogenic ability of murine breast cancer stem cells was tested.

For cucurbitacin, the “reduction of the number of colonies” value was roughly 50%.
